Patent publication US5945436A, “Pyridylmethyl nitriles, amides and thioamides useful as fungicides” (Uniroyal Chemical Company, Inc., priority 1997, dated 1999)

What was measured:
[1] = tested on: Colletotrichum gossypii; test: Fungal growth inhibition, treated disc on agar (COL GOS); type: cell-based; settings: disc dipped in 500 mg/l, 29° C.; for inhibition at 500 µg/mL: Colletotrichum gossypii, read-out: Percent Growth Inhibition, COL GOS
From the text: Filter paper discs, each 11 mm. in diameter, were dipped in each of the test solutions. The discs were allowed to air dry to drive off the acetone solvent. A number of untreated discs were used as controls.
The treated and untreated discs were then placed on agar plates and one of the following fungus species: Septoria nodorum (SEP NOD), Botrytis cinerea (BOT CIN), Fusarium oxysporum (FUS OXY), Pythium ultimum (PYT ULT), Rhizoctonia solani (RHI SOL), Colletotrichum gossypii (COL GOS), and Scierotinia minor (SCL MIN), was added to the center of each disc in the form of a culture plug with the fungus mat in contact with the paper of the test disc. Cercosporidium personatum (CER PER), was added to discs as a spore suspension (20,000 spores/ml) to the disc (two drops of spore suspension per disc), rather than a mycelial culture plug. The plates were then incubated at 29° C. in an oven.
With the exception of the discs containing Cercosporidium personatum, the discs were evaluated by first measuring the radius from the center of the fungus colony on the treated discs and on the untreated discs. Percent growth inhibition of each of the compounds tested was determined as a function of the difference between the radius of the fungus colony on the treated disc versus the radius of the fungus colony on the untreated disc.

[2] = tested on: Erysiphe polygoni; test: Powdery mildew on pinto bean, foliar application (ERY POL); type: in vivo; settings: similar procedure as barley (1,000 mg/l); for pest or weed control at 1000 µg/mL: Erysiphe polygoni, read-out: Percent Reduction of Disease, ERY POL
Method in brief: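 Pinto bean plants sprayed with compound emulsion (acetone or inert solvent, TWEEN 20, water) at 1,000 mg/l, or left unsprayed, dried, then inoculated with Erysiphe polygoni spores in a 21° C greenhouse. Disease scored; percent control computed against untreated controls.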

[3] = tested on: Pythium ultimum; test: Fungal growth inhibition, treated disc on agar (PYT ULT); type: cell-based; settings: disc dipped in 500 mg/l, 29° C.; for inhibition at 500 µg/mL: Globisporangium ultimum, read-out: Percent Growth Inhibition, PYT ULT
[4] = tested on: Erysiphe graminis; test: Powdery mildew of barley, systemic root uptake (BMS); type: in vivo; settings: 45 ml of 250 mg/l, 8 days after inoculation
Method in brief: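 Pot soil of barley (BMS) and cucumber (CMS) plants was drenched with 45 ml of a 250 mg/l acetone/Tween 20 aqueous emulsion, with untreated plants as controls. Disease was scored on a rating scale that included intermediate grades.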

[5] = tested on: Cercosporidium personatum; test: Fungal germination and growth, treated disc on agar, scored (CER PER); type: cell-based; parameters: key: 100: Complete inhibition of germination and growth.; 80: Nearly complete inhibition but some growth.; 50: Partial inhibition of growth or, early complete inhibition but later growth begins.; 20: Some inhibition of growth, but not significant.; 0: No inhibition of growth; settings: disc dipped in 500 mg/l, 29° C., numerical score 0-100, spore suspension
Method in brief: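 Acetone test solutions dried on 11 mm filter paper discs, placed on agar; two drops of C. personatum spore suspension (20,000 spores/ml) applied per disc. Plates incubated at 29° C; germination and growth scored 0 (no inhibition) to 100 (complete inhibition), untreated discs as controls.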

[6] = tested on: Scierotinia minor; test: Fungal growth inhibition, treated disc on agar (SCL MIN); type: cell-based; settings: disc dipped in 500 mg/l, 29° C.; for inhibition at 500 µg/mL: read-out: Percent Growth Inhibition, SCL MIN
[7] = tested on: Fusarium oxysporum; test: Fungal growth inhibition, treated disc on agar (FUS OXY); type: cell-based; settings: disc dipped in 500 mg/l, 29° C.; for inhibition at 500 µg/mL: Fusarium oxysporum, read-out: Percent Growth Inhibition, FUS OXY

| SMILES | Percent Growth Inhibition, COL GOS [1] [%] | Percent Reduction of Disease, ERY POL [2] [%] | Percent Growth Inhibition, PYT ULT [3] [%] | Percent Reduction of Disease, BMS [4] [%] | CER PER inhibition score [5] | Percent Growth Inhibition, SCL MIN [6] [%] | Percent Growth Inhibition, FUS OXY [7] [%] | inhibition at 500 µg/mL [1] [%] | pest or weed control at 1000 µg/mL [2] [%] | inhibition at 500 µg/mL [3] [%] | inhibition at 500 µg/mL [6] [%] | inhibition at 500 µg/mL [7] [%] |
| --- | --- | --- | --- | --- | --- | --- | --- | --- | --- | --- | --- | --- |
| CCCCC(C#N)(CCc1ccc(OCCC)cc1)c1cccnc1 (stereo not shown) [Compound 69] | 100 | 100 | 35 | 0 | 0 | 100 | 30 | – | – | – | – | – |
| C=CCC(C#N)(CCCc1ccccc1OC)c1cccnc1 (stereo not shown) [Compound 70] | – | – | – | 40 | 100 | – | – | 100 | 92 | 49 | 100 | 25 |
| CCCC(C#N)(CCCc1ccccc1OC)c1cccnc1 (stereo not shown) [Compound 71] | – | – | – | 100 | 100 | – | – | 100 | 100 | 60 | 100 | 72 |
| CCCC(C#N)(CCc1ccccc1C(F)(F)F)c1cccnc1 (stereo not shown) [Compound 72] | – | – | – | 90 | 0 | – | – | 100 | 92 | 71 | 100 | 16 |
| CCCCC(C#N)(CCc1ccccc1C(F)(F)F)c1cccnc1 (stereo not shown) [Compound 73] | – | – | – | 100 | 0 | – | – | 85 | 100 | 69 | 100 | 75 |
| CCCCC(C#N)(CCc1ccccc1F)c1cccnc1 (stereo not shown) [Compound 74] | – | – | – | 100 | 0 | – | – | 100 | 100 | 36 | 100 | 3 |
| CCCC(C#N)(CCc1ccccc1F)c1cccnc1 (stereo not shown) [Compound 75] | – | – | – | 100 | 0 | – | – | 100 | 100 | 1 | 92 | 100 |
| CCCCC(C#N)(CCCc1ccc(OC)cc1)c1cccnc1 (stereo not shown) [Compound 76] | – | – | – | 0 | 100 | – | – | 100 | 100 | 0 | 100 | 50 |
| N#CC(CCc1ccc(F)cc1)(CCC(F)(F)F)c1cccnc1 (stereo not shown) [Compound 77] | – | – | – | 100 | 0 | – | – | 15 | 100 | 30 | 40 | 55 |
| N#CC(CCCC(F)(F)F)(CCc1ccc(F)cc1)c1cccnc1 (stereo not shown) [Compound 78] | – | – | – | 100 | 0 | – | – | 50 | 92 | 0 | 20 | 40 |
| Cc1ccc(CCC(C#N)(CCCC(F)(F)F)c2cccnc2)cc1 (stereo not shown) [Compound 79] | – | – | – | 92 | 0 | – | – | 30 | 100 | 0 | 5 | 46 |
| Cc1ccc(CCC(C#N)(CCC(F)(F)F)c2cccnc2)cc1 (stereo not shown) [Compound 80] | – | – | – | 100 | 0 | – | – | 59 | 100 | 7 | 5 | 24 |
| Cc1ccc(CCC(C#N)(CCCF)c2cccnc2)cc1 (stereo not shown) [Compound 81] | – | – | – | 0 | 0 | – | – | 20 | 100 | 20 | 0 | 20 |
